According to patent publication US20260097045A1, “ANTIMICROBIAL COMBINATIONS” (Helperby Therapeutics Limited, priority 2022, published 2026):
Residues, ends and D or L forms follow the SMILES beside them.

Tests used:
Type in all cases: cell-based
[1] = tested on: P. aeruginosa; test: chequerboard assay (percentage of positive control, MIC, FIC) against P. aeruginosa; details: for MIC: Pseudomonas aeruginosa, read-out: MIC Monotherapy (X)
From the text: (§1) FICI or fractional inhibitory concentration index is the sum of the FICs of each antimicrobial when used in combination. The FIC or fractional inhibitory concentration of an antimicrobial in a combination, is the MIC of the antimicrobial in the combination divided by the MIC of the same antimicrobial when used alone. Minimum inhibitory concentrations are defined in the art as the lowest concentration of an antimicrobial that will inhibit the visible growth of a microorganism after overnight incubation.
(§2) In the method for a 3-mer combination, one antibiotic was “fixed” as part of a backbone whilst the two other antibiotics were varied over a doubling concentration scale beginning at the MIC (×1) for the effective dose in monotherapy against the organism being tested. The ΣFIC was then calculated as shown below. In the method for a 4-mer combination, two antibiotics were “fixed” as part of a backbone whilst the two other antibiotics were varied over a doubling concentration scale beginning at the MIC (×1) for the effective dose in monotherapy against the organism being tested.
(§3) The ΣFIC was divided by “0.5/n” where n=number of antimicrobials in the combination to provide FIC. The inventors opted for this expression because it more closely aligns with the 2-mer synergy levels. The same FIC scale as used for 2-mers was applied: synergy is observed when FIC is <0.5. An “Additive” effect is observed when FIC is 0.5 to <1. Indifference is observed when FIC is 1 to <2. Antagonism is observed when FIC is 2 to 4.
(§4) The antimicrobial agents were sourced from commercially available sources. They were prepared by being weighed and dissolved in water, PBS, DMSO or acidified water to a final concentration from 1-10 mg/mL. Antimicrobial solutions were diluted to 10× highest concentration used in the experiment and subsequently diluted 2× over a series not exceeding 11 serial dilutions. These left the operator with a maximum of 12 different, descending concentrations of the chosen antimicrobials.
(§5) The bacteria were obtained from Ninewells Hospital and Medical School in Dundee, Scotland. They were obtained as patient strains and characterised by Vitek 2 screening. To prepare for the Examples below, the bacteria were grown overnight in Mueller Hinton Cation adjusted broth or until confluent in media with or without supplements. The bacteria were measured for OD600 and readings of <0.25 were returned to the incubator.
(§6) All data herein was produced using the same chequerboard assay.
(§7) 20 μL of antibiotic A (backbone), at a single dilution, was pipetted into all wells of a 96-well plate to be used.
(§8) 20 μL of the lowest concentration of antibiotic B (first variable) was pipetted into column 1 of the 96-well plate. The second concentration (2-fold more concentrate) was pipetted into column 2. This process was repeated until all concentrations of antibiotic B to be used were complete.
(§9) 20 μL of the lowest concentration of antibiotic C (second variable) were pipetted into row A of the 96-well plate. The second concentration (2-fold more concentrate) was pipetted into row B. This process was repeated until all concentrations of antibiotic C to be used were complete.
(§10) 120 μL of sterile media (BHI/MHB2) was added.
(§11) 20 ul of prepared bacterial culture was added.
(§12) Plates were sealed with lids and left to incubate for 16 hours, overnight.
(§13) Plates were read at OD600 in a 96-well plate reader. These are the values reported in the chequerboards below.
(§14) As a tri-mer combination, two antibiotic concentrations were varied while one remained constant, the latter is the “backbone”. For the 4-mer combination, two antibiotic concentrations were varied while two remained constant, the latter is the “backbone”. This method is explained above along with the calculation of the FICI and the indicative value for synergy, indifference and antagonism.
The method was identical to Comparative Example 1, except the isolate was P. aeruginosa.

[2] = tested on: K. pneumoniae CPE; test: chequerboard assay (OD600, FIC) against K. pneumoniae CPE; details: agent alone
[3] = tested on: A. baumannii; test: chequerboard assay (percentage of positive control, MIC, FIC) against A. baumannii; details: for concentration up to which the isolate was resistant to the agent / MIC: A. baumannii isolate, agent alone; for MIC: Acinetobacter baumannii, read-out: MIC Monotherapy (X)
From the text: as §1, §2, §3, §4, §5, §6, §7, §8, §9, §10, §11, §12, §13, §14
The method was identical to Comparative Example 1. The isolate was A. baumannii.

[4] = tested on: Methicillin-resistant Staphylococcus aureus (MRSA); test: chequerboard assay (percentage of positive control, MIC, FIC) against MRSA; details: for MIC: Staphylococcus aureus, agent alone, MRSA isolate, read-out: MIC Monotherapy (X)
From the text: as §1, §2, §3, §4, §5, §6, §7, §8, §9, §10, §11, §12, §13, §14
The method was identical to Comparative Example 1. The isolate was Methicillin-resistant Staphylococcus aureus (MRSA).

[5] = tested on: ESBL E. coli; test: chequerboard assay (OD600, MIC, FIC) against ESBL E. coli; details: for MIC: Escherichia coli, agent alone, ESBL E. coli isolate, read-out: MIC Monotherapy (X)
From the text: as §1, §2, §3, §4, §5, §6, §7, §8, §9, §10, §11, §12, §13, §14

[6] = agent alone, P. aeruginosa isolate
[7] = agent within AZT + ceftazidime + colistin (Example 17)
[8] = agent within AZT + fosfomycin + colistin (Example 15)
[9] = agent within AZT + meropenem + colistin + fosfomycin (Example 14)
[10] = agent within zidovudine + meropenem + colistin + ceftazidime (Example 13)
[11] = agent within zidovudine + meropenem + colistin + fosfomycin (Example 14)
[12] = agent within AZT + colistin + ceftazidime (Example 17)
[13] = agent within ceftazidime + levofloxacin + fosfomycin (Example 18)
[14] = agent within ceftazidime + levofloxacin + meropenem (Example 19)
[15] = P. aeruginosa isolate, agent alone
[16] = agent within AZT + ceftazidime + meropenem (Example 16)
[17] = agent within ceftazidime + AZT + doxycycline (Example 3)

Compound	MIC [1, 6] [µg/mL]	MIC combination therapy (Y) [1, 7] [µg/mL]	MIC combination therapy (Y) [1, 8] [µg/mL]	Ratio Y:X [1, 8]	MIC combination therapy (Y) [1, 10] [µg/mL]	MIC combination therapy (Y) [1, 11] [µg/mL]	MIC [3] [µg/mL]	MIC combination therapy (Y) [3, 12] [µg/mL]	MIC combination therapy (Y) [3, 8] [µg/mL]	Ratio Y:X [3, 8]	MIC [4] [µg/mL]	MIC combination therapy (Y) [4, 13] [µg/mL]	MIC combination therapy (Y) [4, 14] [µg/mL]	MIC combination therapy (Y) [1, 16] [µg/mL]	MIC combination therapy (Y) [5, 17] [µg/mL]	also measured
CCC(C)CCCC(=O)N[C@@H](CCN)C(=O)N[C@H](C(=O)N[C@@H](CCN)C(=O)N[C@H]1CCNC(=O)[C@H]([C@@H](C)O)NC(=O)[C@H](CCN)NC(=O)[C@H](CCN)NC(=O)[C@H](CC(C)C)NC(=O)[C@@H](CC(C)C)NC(=O)[C@H](CCN)NC1=O)[C@@H](C)O (stereo partly drawn) (HELM PEPTIDE1{[CCC(C)CCCC(=O)[*:2]].[Dab].T.[Dab].[Dab].[Dab].[dL].L.[Dab].[Dab].T}$PEPTIDE1,PEPTIDE1,5:R3-11:R2$$$V2.0)	512	4	0.5	0.000977	2	32	128	32	0.5	0.003906	–	–	–	–	–	Ratio Y:X [1, 7]: 0.007813; Ratio Y:X ([1]; agent within AZT + meropenem + colistin + ceftazidime (Example 13)): 0.003906; Ratio Y:X [1, 9]: 0.0625; concentration at which the isolate was resistant to the agent [2]: ≥ 8 mg/L; concentration up to which the isolate was resistant to the agent [3]: 64 mg/L; Ratio Y:X [3, 12]: 0.25
C[C@H]1COc2c(N3CCN(C)CC3)c(F)cc3c(=O)c(C(=O)O)cn1c23 [Levo, Levofloxacin]	–	–	–	–	–	–	–	–	–	–	1	0.125	0.25	–	–	Ratio Y:X [4, 13]: 0.125; Ratio Y:X [4, 14]: 0.25
C[C@@H](O)[C@H]1C(=O)N2C(C(=O)O)=C(S[C@@H]3CN[C@H](C(=O)N(C)C)C3)[C@H](C)[C@H]12 [Meropenem]	32	–	–	–	2	4	–	–	–	–	32	–	4	4	–	concentration up to which the isolate was resistant to the agent [1, 15]: 64 mg/L
Cc1cn([C@H]2C[C@H](N=[N+]=[N-])[C@@H](CO)O2)c(=O)[nH]c1=O [Zidovudine, 1-[(2R, 4S, 5S)-4-Azido-5-(hydroxymethyl)oxolan-2-yl]-5-methylpyrimidine-2,4-dione]	512	2	0.5	0.000977	1	1	512	4	0.5	0.000977	–	–	–	8	0.125	Ratio Y:X [1, 7]: 0.003906; Ratio Y:X [1, 16]: 0.01562; Ratio Y:X [1, 10]: 0.001953; Ratio Y:X [1, 11]: 0.001953; MIC [5]: 1 µg/mL; Ratio Y:X [5, 17]: 0.125; Ratio Y:X [3, 12]: 0.007813
C[C@H]1c2cccc(O)c2C(=O)C2=C(O)[C@]3(O)C(=O)C(C(N)=O)=C(O)[C@@H](N(C)C)[C@@H]3[C@@H](O)[C@@H]21 [Doxycycline]	–	–	–	–	–	–	–	–	–	–	–	–	–	–	0.5	MIC [5]: 1 µg/mL
C[C@@H]1O[C@@H]1P(=O)(O)O [Fosfomycin]	256	–	16	0.125	–	4	256	–	32	0.125	16	2	–	–	–	concentration up to which the isolate was resistant to the agent [1, 15]: 64 mg/L; MIC Monotherapy (X) [1, 6]: 128 µg/mL; Ratio Y:X [1, 9]: 0.01562; Ratio Y:X [4, 13]: 0.125; concentration up to which the isolate was resistant to the agent [3]: 128 mg/L
CC(C)(O/N=C(\C(=O)N[C@@H]1C(=O)N2C(C(=O)[O-])=C(C[n+]3ccccc3)CS[C@H]12)c1csc(N)n1)C(=O)O [Ceftazidime]	512	1	–	–	1	–	512	32	–	–	–	16	1	0.5	4	concentration at which the isolate was resistant to the agent [2]: 4 mg/L
